Measurements as given in US11000481B2, “Composite preparation of mosapride and rabeprazole” (KOREA UNITED PHARM. INC., priority 2015, dated 2021).
Read-outs that look alike come from different tables or passages of the source.

Experiments:
[1] = exposed to an acidic condition of pH 6.8 or below; conventionally known; cited from earlier work
[2] = Stability of rabeprazole sodium depending on pH; assay type: physicochemical; conditions: condition of pH 9.0
From the text: Accordingly, it was difficult to conduct a dissolution test for the rabeprazole sodium drug in general conditions.

SMILES: COCCCOc1ccnc(C[S+]([O-])c2nc3ccccc3[nH]2)c1C (centres unmarked) [rabeprazole sodium]
- Stability of rabeprazole sodium [1]: degraded
- Stability of rabeprazole sodium [2]: highly stable
